{
  "source": "paper PMC5242521",
  "about": "(PLoS ONE, 2017)",
  "biological_target": "T1, OCT1 (Homo sapiens, UniProt O15245)",
  "T1 sequence (O15245 1-554)": "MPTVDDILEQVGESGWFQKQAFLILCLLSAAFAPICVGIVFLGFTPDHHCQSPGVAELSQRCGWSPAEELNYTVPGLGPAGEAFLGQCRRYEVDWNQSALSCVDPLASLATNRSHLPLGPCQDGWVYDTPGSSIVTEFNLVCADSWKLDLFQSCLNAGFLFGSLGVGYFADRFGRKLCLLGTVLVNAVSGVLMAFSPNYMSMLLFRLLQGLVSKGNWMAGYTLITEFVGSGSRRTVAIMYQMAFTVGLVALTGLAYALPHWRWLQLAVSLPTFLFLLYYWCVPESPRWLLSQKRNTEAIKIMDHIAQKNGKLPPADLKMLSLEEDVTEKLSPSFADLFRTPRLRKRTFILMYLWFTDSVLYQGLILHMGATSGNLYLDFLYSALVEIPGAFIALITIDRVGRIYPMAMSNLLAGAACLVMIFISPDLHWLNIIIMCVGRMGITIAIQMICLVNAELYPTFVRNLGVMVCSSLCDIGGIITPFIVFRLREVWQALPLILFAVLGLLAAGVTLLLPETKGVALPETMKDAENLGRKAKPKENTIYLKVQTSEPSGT",
  "assay": "Cis-inhibition of OCT1-mediated TEA accumulation in HEK-OCT1 cells",
  "format": "cell-based",
  "conditions": "pyrethroid 100 μM; 29 μM [14C]-TEA, 5 min",
  "protocol": "Intracellular accumulation of TEA was then determined by scintillation counting. […] After washing, cells were next re-incubated with 29 μM [1-^14C]-TEA for 5 min at 37°C. Intracellular accumulation of [1-^14C]-TEA was then determined by scintillation counting.",
  "data": [
    {"smiles": "C=CCC1=C(C)C(OC(=O)C2C(C=C(C)C)C2(C)C)CC1=O", "note": "(stereo not shown) [allethrin]", "values": [
      {"measurement": "cis-effect on TEA accumulation in HEK-OCT1 cells", "value": "markedly cis-inhibit"}
    ]}
  ]
}
